# Patent US7696408B2, “Method to enhance Agrobacterium-mediated transformation of plants” (Regents of the University of Minnesota, priority 1999, dated 2010)
# “Also recorded” adds a separate entry of the source.
# Assays:
# [1] = tested on: soybean cot-node explants; assay: De novo shoot production on explants at four weeks on shoot induction media; format: cell-based, Glycine max; settings: Experiment #4, Bert
# [2] = tested on: soybean cot-node explants; assay: GUS transient expression on soybean cot-node explants after 5-day co-cultivation with Agrobacterium (T-DNA delivery); format: cell-based, Glycine max
# Source text: For each seedling, the roots and the majority of the hypocotyl were removed approximately 3-5 mm below the cotyledonary node by cutting the hypocotyl with a scalpel (Hinchee et al., 1998). The two cotyledons were then separated by cutting vertically through the hypocotyl region resulting in two explants. The epicotyl was subsequently removed on both explants, including all primary leaves and shoot meristems, and both the axillary bud and cotyledonary node were wounded by cutting about 10 times with a scalpel blade perpendicular to the hypocotyl. After all explants in a set were wounded (about 50), they were placed in a 25×100 mm petri plate containing 50 ml co-culture suspension for 30 minutes or inoculated into the 25 ml co-cultivation/Agrobacterium suspension for 30 minutes. The explants were then cultured on an agar-solidified co-culture media (0.5%) either without the addition of a test agent (e.g., cysteine) in 15×100 mm petri plates on top a sterile Whatman®#1 filter paper; five explants per plate with adaxial side down. Five plates were stacked together and wrapped in Parafilm®M then incubated at either 22° C. or 25° C. for 5 days in the dark.
# After 5 days, the explants were washed in a liquid shoot induction media (B5 salts, MSIII iron stock, 3% sucrose, 3 mM MES, and filter sterilized B5 vitamins, 1.67 mg/l BAP, 100 mg/l cefotaxime, and 500 mg/l ticarcillin; pH 5.6) to remove excess Agrobacterium. Seven to ten explants from each cysteine level were washed in liquid shoot induction medium and placed in GUS histochemical stain (Jefferson et al., 1987). These explants were scored for GUS transient expression. Five to ten explants from each group were imbedded into a single 25×100 mm petri plate with solid shoot induction media (0.8% agar and agent, e.g., 400 mg/l cysteine) containing PPT concentrations of 1.33 mg/l, 3.33 mg/l, or 5.0 mg/l for selection. The plates were then incubated in a growth chamber with a fluctuating temperature between 18° C.-30° C. under a 18 hours light/6 hours dark cycle at 90-150 μE/m^2s.
# The level of infection was scored using the GUS gene as a phenotypic marker immediately after co-culture and again after 4 weeks in shoot induction media. As it can be difficult to score the explants after co-cultivation due to the variation among explants and, in some cases, a complete staining of the target tissues, 6 categories were formed to assess the success of infection: • 4) None=There were no GUS positive sectors on any of the explants; • 5) Very low=Not all explants have GUS positive sectors, however, some have discrete foci usually seen on the hypocotyl or cot-node region. • 6) Low=More than ¾ the explants have GUS positive sectors in discrete foci on the hypocotyl and the cot-node region, but the foci are not numerous (<20). • 7) Medium=More than ½ the explants have significant GUS positive sectors at the cot-node region and hypocotyl, some seen as long lines of cells or larger sectors. • 8) Good=More than ¾ the explants have significant staining at the hypocotyl, the entire cot-node region, and on the cotyledons. […] Almost all explants have regions that are completely GUS positive. To reduce bias, samples were chosen at random and the level of infection scored before noting the treatment conditions. Samples that were between two categories are marked accordingly; those samples that resembled one category more than another were marked with a capital “X” and the other with a lowercase “x”.
# Wounded soybean cot-node explants prepared from the cultivar ‘Bert’ were co-cultivated with Agrobacterium on solid co-cultivation medium containing various levels of cysteine for 5 days.
# soybean explants = assay: Enzymatic browning and growth of soybean explants after co-cultivation; format: cell-based, Glycine max; settings: for enzymatic browning of soybean explants: cysteine (e.g., 400-1000 mg/l) in solid co-cultivation medium
# fava bean explants = assay: Enzymatic browning of fava bean explants; format: cell-based; settings: cysteine (e.g., 400-1000 mg/l) in solid co-cultivation medium
# [3] = tested on: soybean cot-node explants; assay: GUS transient expression on soybean cot-node explants after 5-day co-cultivation with Agrobacterium (T-DNA delivery); format: cell-based, Glycine max; remark: listed apart in the source
smiles,measurement,setting,value
N[C@@H](CS)C(=O)O [L-cysteine],explants that developed de novo shoots,"[1]; 0S,400L",75%
same,explants that developed de novo shoots,"[1]; 400L,0S (mg/l cysteine liquid, solid), control 0L,0S 76%",47%
same,explants that developed de novo shoots,"[1]; 400L,400S",68%
same,"infection, cysteine in solid co-culture media (experiments #4-#6)",[2]; 0 or 400 mg/l cysteine in liquid and solid co-culture media,increased infection
same,average frequency of explants containing a GUS+ focus at the cot-node,"[2]; 300 to 1000 mg/l cysteine in solid co-cultivation medium, Bert, AGL1 pBSF16, 5 days, 30% with no cysteine",~100%
same,"GUS staining scores, difference from 0 mg/l cysteine","[2]; 400 and 1000 mg/l cysteine, α=0.05 (P<0.001)",significantly differ
same,"frequency of explants with at least one GUS+ focus, difference from 0 mg/l cysteine","[2]; 400 and 1000 mg/l cysteine, α=0.05 (P<0.001), FIG. 1D",significantly differ
same,"frequency of explants with GUS+ foci at the cot-node, all genotypes","[2]; 5 days co-cultivation, MN0901, A3237, MN1801, MN0301, Granite, MN1401, MN1301, Lambert",increase
same,GUS+ staining after co-cultivation,"[2]; Bert, LBA4404 pTOK233, agent in solid co-cultivation media, concentrations of Table 1, 5-day incubation",increases
same,infection (% of explants) at the entire cot-node region,"[2]; after 5-day incubation, cysteine containing solid co-culture media (100-400 mg/l L-cysteine), genotypes Bert, MN1301, MN0901, 50% of control explants",80-100%
same,GUS+ foci at the 5-day interval,[2]; amended to solid co-cultivation media,increase
same,number of GUS+ foci per explant five days post-inoculation,"[2]; cysteine 400-1000 mg/l, eight independent experiments",increase
same,frequency of GUS positive sectors/foci with strain LBA4404 pTOK233,"[2]; cysteine during co-cultivation vs control, 5 days",exceed in the frequency of GUS positive sectors over the control explants; also recorded: greater
same,GUS positive sectors after co-cultivation (experiments #1-#3),"[2]; cysteine, especially 300 and 400 mg/l, MN1301, MN0901, Bert",extensive GUS positive sectors
same,frequency of explants with at least one GUS+ focus at the cot-node,"[2]; five days post-inoculation, cysteine 400-1000 mg/l, eight independent experiments, 30% without",100%
same,callus growth on the hypocotyl,"soybean explants; co-cultivated in 1000 mg/l cysteine, 28 days",little callus growth on the hypocotyl
same,growth of the hypocotyls of explants,"soybean explants; co-cultivated in 800 and 1000 mg/l cysteine, experiment #7",little to no growth of the hypocotyls
same,enzymatic browning of soybean explants,soybean explants; listed as Cysteine,decreased
same,enzymatic browning of soybean explants,soybean explants; listed as cysteine,less browning
same,enzymatic browning of fava bean explants,fava bean explants,decreased
same,infection in genotypes that respond poorly to the cot-node method,"[3]; 400 mg/l cysteine, MN1401, Granite, Lambert, MN1801, MN0301",significant increase in infection
same,"GUS+ foci on 5 day explants, cysteine only in liquid media",[3]; cysteine added only to liquid Agrobacterium culture (YEP) or liquid co-cultivation medium,did not increase; also recorded: no increases detected
